Results reported in patent US11976047B1, “4,5-bis(4-bromo-phenyl)-1-hexyl-2-(2- methoxyphenyl)-1H-imidazole as an antimicrobial compound” (KING FAISAL UNIVERSITY, priority 2023, dated 2024).

Columns and labels:
Format in all cases: cell-based
Details in all cases: after 10, 20, 40 and 60 minutes at all dilutions 1:100, 1:200, 1:400, 1:800 (summary in words)
Staphylococcus aureus = assay: Antimicrobial screening by agar dilution, Staphylococcus aureus
Experimental: (§1) The antimicrobial properties of the 4,5-bis(4-bromo-phenyl)-1-hexyl-2-(2-methoxyphenyl)-1H-imidazole was studied by the method of agar dilution. Test solutions of each compound was prepared in concentration of 1% using dimethylformamide as a solvent then they are diluted in physiological solution to obtain the final experimental dilutions 1:100, 1:200, 1:400, 1:800. The effect of these substances are compared with furacillin in a controlled study. The testing microbes used were gram positive bacteria Staphylococcus aureus, gram negative bacteria Pseudomonas aeruginosa and Escherichia coli and Candida albicans fungi were taken. The experiments used for this survey were meat-pentonlu agar (EPA) for cultivation of bacteria and Saburo environment for fungi. Each experiment used 1 ml of test solution on each plate 500 min. Add 2 drops of emulsified with microbes feel. All experimental samples were taken from the agar after 10, 20, 40, 60 minutes in the environment on the basis of Patrk planted. Bacteria were cultivated at a temperature of 37° C. for 1 day and the mushroom was kept in a thermostat for 2 hours at a temperature of 28° C. in the. Then results were checked.

Pseudomonas aeruginosa = assay: Antimicrobial screening by agar dilution, Pseudomonas aeruginosa
Experimental: as §1

Escherichia coli = assay: Antimicrobial screening by agar dilution, Escherichia coli
Experimental: as §1

Candida albicans = assay: Antimicrobial (antifungal) screening by agar dilution, Candida albicans
Experimental: as §1

CCCCCCn1c(-c2ccccc2OC)nc(-c2ccc(Br)cc2)c1-c1ccc(Br)cc1 [4,5-bis(4-bromo-phenyl)-1-hexyl-2-(2-methoxyphenyl)-1H-imidazole]
highest inhibition activity: inhibition activity, Staphylococcus aureus (Staphylococcus aureus) | inhibition activity, Pseudomonas aeruginosa (Pseudomonas aeruginosa) | inhibition activity, Escherichia coli (Escherichia coli) | inhibition activity, Candida albicans (Candida albicans)
